We go through 2 molecules from US20170348375A1, “DISLODGEMENT AND RELEASE OF HSC FROM THE BONE MARROW STEM CELL NICHE USING ALPHA9 INTEGRIN ANTAGONISTS” (COMMONWEALTH SCIENTIFIC AND INDUSTRIAL RESEARCH ORGANISATION, priority 2014, published 2017).

Entries after “also recorded” stand apart in the source; their conditions may differ.

In test [1] the target is T1, human integrin α4β1 (overexpressed in LN18 α4β1 cells; pMSCV-hITGA4-IRES-hITGB1) (Homo sapiens, UniProt P05556+P13612).
T1 construct: expressed in transfected cells; host or cells: LN18 human glioblastoma cells (ATCC CRL-2610), retrovirally transduced with pMSCV-hITGA4-IRES-hITGB1
T1 sequence (P13612 34-1032): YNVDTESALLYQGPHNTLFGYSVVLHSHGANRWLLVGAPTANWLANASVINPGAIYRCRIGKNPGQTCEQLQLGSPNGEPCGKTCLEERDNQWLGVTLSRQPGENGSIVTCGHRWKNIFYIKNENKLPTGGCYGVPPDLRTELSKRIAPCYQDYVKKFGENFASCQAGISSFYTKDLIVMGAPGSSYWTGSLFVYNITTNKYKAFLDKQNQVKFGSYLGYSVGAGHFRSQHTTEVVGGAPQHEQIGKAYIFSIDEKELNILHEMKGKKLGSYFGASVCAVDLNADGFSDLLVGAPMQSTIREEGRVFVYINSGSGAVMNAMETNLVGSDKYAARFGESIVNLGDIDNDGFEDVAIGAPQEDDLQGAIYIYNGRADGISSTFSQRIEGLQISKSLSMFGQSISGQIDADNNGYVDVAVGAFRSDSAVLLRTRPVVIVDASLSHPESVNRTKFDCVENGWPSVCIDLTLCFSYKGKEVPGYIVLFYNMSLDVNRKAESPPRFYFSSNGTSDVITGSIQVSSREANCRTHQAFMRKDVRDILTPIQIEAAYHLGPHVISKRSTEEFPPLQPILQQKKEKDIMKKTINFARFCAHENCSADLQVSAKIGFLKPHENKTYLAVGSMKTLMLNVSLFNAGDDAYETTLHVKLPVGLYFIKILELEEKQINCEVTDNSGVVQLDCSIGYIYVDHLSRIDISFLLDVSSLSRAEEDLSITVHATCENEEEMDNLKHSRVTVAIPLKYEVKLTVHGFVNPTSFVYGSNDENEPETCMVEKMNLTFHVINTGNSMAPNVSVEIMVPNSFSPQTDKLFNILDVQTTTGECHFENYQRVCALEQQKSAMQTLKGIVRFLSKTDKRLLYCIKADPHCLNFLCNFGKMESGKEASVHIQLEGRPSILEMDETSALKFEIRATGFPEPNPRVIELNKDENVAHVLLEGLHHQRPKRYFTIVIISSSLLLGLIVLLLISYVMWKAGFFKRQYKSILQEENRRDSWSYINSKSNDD
T1 sequence (P05556 21-798): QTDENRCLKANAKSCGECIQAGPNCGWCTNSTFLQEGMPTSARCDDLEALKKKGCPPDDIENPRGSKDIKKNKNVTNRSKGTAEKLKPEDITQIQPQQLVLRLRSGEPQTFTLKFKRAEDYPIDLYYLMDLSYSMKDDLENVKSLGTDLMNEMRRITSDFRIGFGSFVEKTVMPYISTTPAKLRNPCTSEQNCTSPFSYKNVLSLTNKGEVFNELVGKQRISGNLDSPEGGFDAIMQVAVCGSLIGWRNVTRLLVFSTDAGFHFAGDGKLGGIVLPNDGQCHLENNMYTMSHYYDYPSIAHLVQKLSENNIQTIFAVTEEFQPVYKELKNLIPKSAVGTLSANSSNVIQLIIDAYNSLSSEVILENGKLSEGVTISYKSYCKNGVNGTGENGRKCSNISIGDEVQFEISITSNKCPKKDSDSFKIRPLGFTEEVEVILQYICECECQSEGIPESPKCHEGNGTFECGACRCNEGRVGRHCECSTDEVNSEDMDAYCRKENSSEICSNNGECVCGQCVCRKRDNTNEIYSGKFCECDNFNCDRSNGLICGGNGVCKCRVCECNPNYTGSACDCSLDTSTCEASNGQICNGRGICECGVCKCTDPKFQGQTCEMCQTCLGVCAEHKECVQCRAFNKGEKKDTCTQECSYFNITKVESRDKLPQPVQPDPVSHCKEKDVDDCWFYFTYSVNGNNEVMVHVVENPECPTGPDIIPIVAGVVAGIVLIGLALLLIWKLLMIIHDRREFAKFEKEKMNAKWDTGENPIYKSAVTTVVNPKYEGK
The experiment in a line: Competitive inhibition of R-BC154 (50 nM) binding to LN18 α4β1 cells by BOP, flow cytometry. Here is the method: (§1) Stable LN18 cells over-expressing human integrin α4β1 and α9β1 were generated via retroviral transduction of human glioblastoma LN18 cell lines. Silencing of background α4 expression in parental and α9β1 transduced LN18 cells was achieved by retroviral vector delivery of α4 shRNA.
(§2) (a) Chemical structure of α9β1/α4β1 integrin antagonist BOP (2). […] Data is mean±SEM (n=3) (d) Analysis of the WBC, (e) LSK and (f) LSKSLAM content in the peripheral blood of mice treated with BOP (10 mg/kg) over 90 mins. Data is mean±SEM (n=5 per time point).
(§3) Flow cytometric analysis was performed using an LSR II (BD Biosciences) as previously described in J. Grassinger, et al Blood, 2009, 114, 49-59. […] For BM and PB analysis, up to 5×10^6 cells were analysed at a rate of 10-20 k cell events/sec. For analysis of PB LSKSLAM, up to 1×10^6 events were saved. Cell sorting was performed on a Cytopeia Influx (BD) as previously described in J. Grassinger, et al.
(§4) Stable LN18 cells ((ATCC number: CRL-2610) over-expressing integrin α4β1 (LN18 α4β1) or α9β1 (LN18 α9β1)) were generated by retroviral transduction using the pMSCV-hITGA4-IRES-hITGB1 and pMSCV-hITGA9-IRES-hITGB1 vectors as previously described in J Grassinger, et al Blood, 2009, 114, 49-59 and were maintained in DMEM supplemented with 2 mM L-glutamate in 10% FBS. […]
A general note: Flow cytometry measures light scatter and fluorescence of single cells or particles in a stream.

Test [2] deals with T2, human integrin α9β1 (overexpressed in LN18 α9β1 cells, α4-silenced; pMSCV-hITGA9-IRES-hITGB1) (Homo sapiens, UniProt P05556+Q13797).
T2 construct: expressed in transfected cells; host or cells: LN18 human glioblastoma cells (ATCC CRL-2610), retrovirally transduced with pMSCV-hITGA9-IRES-hITGB1, α4 silenced with pSM2c-shITGA4
T2 sequence (Q13797 30-1035): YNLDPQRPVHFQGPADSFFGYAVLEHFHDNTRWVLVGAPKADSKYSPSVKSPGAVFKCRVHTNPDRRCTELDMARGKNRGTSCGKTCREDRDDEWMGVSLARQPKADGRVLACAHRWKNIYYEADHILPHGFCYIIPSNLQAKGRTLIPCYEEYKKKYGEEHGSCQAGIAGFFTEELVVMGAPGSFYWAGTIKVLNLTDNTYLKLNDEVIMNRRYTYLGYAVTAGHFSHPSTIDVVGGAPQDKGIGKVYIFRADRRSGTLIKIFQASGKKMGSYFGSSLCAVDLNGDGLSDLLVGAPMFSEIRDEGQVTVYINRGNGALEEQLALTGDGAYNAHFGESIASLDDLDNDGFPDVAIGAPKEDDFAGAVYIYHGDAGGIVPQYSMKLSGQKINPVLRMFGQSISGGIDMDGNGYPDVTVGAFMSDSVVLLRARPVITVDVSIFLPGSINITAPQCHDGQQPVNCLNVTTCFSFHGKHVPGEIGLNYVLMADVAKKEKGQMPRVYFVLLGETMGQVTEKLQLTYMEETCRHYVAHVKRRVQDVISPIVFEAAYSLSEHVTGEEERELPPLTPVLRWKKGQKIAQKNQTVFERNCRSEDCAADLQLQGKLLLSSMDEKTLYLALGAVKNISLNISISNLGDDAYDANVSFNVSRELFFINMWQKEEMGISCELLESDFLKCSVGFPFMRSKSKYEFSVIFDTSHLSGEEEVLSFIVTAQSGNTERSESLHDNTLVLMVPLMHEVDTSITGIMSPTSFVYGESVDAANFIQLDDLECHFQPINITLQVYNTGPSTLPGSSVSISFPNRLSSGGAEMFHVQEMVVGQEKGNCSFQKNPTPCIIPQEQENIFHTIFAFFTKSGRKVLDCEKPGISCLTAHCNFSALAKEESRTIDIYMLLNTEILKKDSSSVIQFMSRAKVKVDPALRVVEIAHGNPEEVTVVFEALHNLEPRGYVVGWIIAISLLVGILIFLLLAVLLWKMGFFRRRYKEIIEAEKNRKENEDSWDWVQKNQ
T2 sequence (P05556 21-798): as the sequence (P05556 21-798) above
The experiment in a line: Competitive inhibition of R-BC154 (50 nM) binding to LN18 α9β1 cells by BOP, flow cytometry. Here is the method: as §1, §2, §3, §4

In test [3] the target is α9β1 (Homo sapiens, UniProt P05556+Q13797). Conditions: Pepinsky et al (2002) FIG. 4b; cited from earlier work.
Chain of α9β1 (Q13797 30-1035): as the sequence (Q13797 30-1035) above
Chain of α9β1 (P05556 21-798): as the sequence (P05556 21-798) above
Test [4] deals with α4β1 and α9β1 integrins binding to VCAM-1 and Opn. Conditions: in vitro; cited from earlier work.
Test [5] concerns the target T3, α9β1 integrin (Homo sapiens, UniProt P05556+Q13797).
T3 construct: expressed in transfected cells; host or cells: human glioblastoma LN18 (ATCC CRL-2610), retrovirally transduced; α4 silenced with pSM2c-shITGA4
The experiment in a line: Competitive inhibition of R-BC154 binding to α9β1 LN18 cells. Particulars: 1 mM Ca2+/Mg2+. Here is the method:
(§5) Cells were incubated for 90 min at 37° C., washed with PBS, pelleted by centrifugation and resuspended in PBS (200 μl) for flow cytometric analysis. % Max mean fluorescence intensity (MFI) was plotted against the log concentration of BOP and the data fitted to a ligand binding-sigmoidal dose-response curve and IC50 values obtained from graphs.

Test [6] deals with WBC, LSK and LSKSLAM in PB. Nature of the test: Mobilization of HSC and progenitors into peripheral blood. In kind it is in vivo, mouse. Here is the method: For mobilization experiments, all mice received subcutaneous injections at 100 μl/10 gm body weight and PB was harvested by throat bleed using EDTA coated syringes.
For test [7], the target named is T4, α4β1 integrin (Homo sapiens, UniProt P05556+P13612).
T4 construct: expressed in transfected cells; host or cells: human glioblastoma LN18 (ATCC CRL-2610), retrovirally transduced
T4 sequence (P13612 34-1032): as the sequence (P13612 34-1032) above
T4 sequence (P05556 21-798): as the sequence (P05556 21-798) above
The experiment in a line: Competitive inhibition of R-BC154 binding to α4β1 LN18 cells. Conditions: 1 mM Ca2+/Mg2+. Here is the method:
as §5

Test [8] concerns α9β1 and α4β1 integrin binding on HSC and progenitors (LSK and LSKSLAM). The experiment in a line: Competitive displacement of R-BC154 binding to LSK and LSKSLAM cells. In kind it is cell-based, mouse. Particulars: 500 nM, 1 mM Ca2+/Mg2+. On the procedure:
as §5

T3 sequence (Q13797 30-1035): as the sequence (Q13797 30-1035) above
T3 sequence (P05556 21-798): as the sequence (P05556 21-798) above

For orientation: IC50 means the point on the concentration scale where inhibition reaches its midpoint. High values mean lower potency, low ones higher potency. Turning to `O=C(O)[C@H](Cc1ccc(OC(=O)N2CCCC2)cc1)NC(=O)[C@@H]1CCCN1S(=O)(=O)c1ccccc1` [BOP (2), N-(Benzenesulfonyl)-L-prolyl-L-O-(1-pyrrolidinylcarbonyl)tyrosine], the IC50 in test [1] worked out at 2.39 nM; in test [2], 2.62 nM.
For `O=C(O)[C@H](Cc1ccc(OC(=O)N2CCCC2)cc1)NC(=O)[C@@H]1CCCN1S(=O)(=O)c1ccccc1` [BOP, N-(Benzenesulfonyl)-L-prolyl-L-O-(1-pyrrolidinylcarbonyl)tyrosine], the “off-rates for α9β1 compared to α4β1” value in test [3] is on record as “significantly reduced off-rates”. Further, the “inhibition of binding of α4β1 and α9β1 integrins to VCAM-1 and Opn” value in test [4] was “nanomolar inhibitory potencies; also recorded: can inhibit”. The “inhibition of α9β1 integrin (competitive inhibition of R-BC154 binding)” value in test [5] is given as “potent inhibitor”. Moreover, in test [6] (10 mg/kg, C57BL/6 mice, up to 90 mins), the “PB WBC, LSK and LSKSLAM compared to the saline control” value is on record as “significant increases”. The “mobilization of HSC with long-term multi-lineage engraftment potential” value in test [6] (summary statement) was “effectively and rapidly mobilized”. In addition, in test [7], the “inhibition of α4β1 integrin (competitive inhibition of R-BC154 binding)” value is “potent inhibitor”. Further, the “inhibition of α9β1 and α4β1 integrin binding on HSC and progenitors (displacement of R-BC154)” value in test [8] was “effectively inhibited”.
